Patent US20080038267A1, “Treatment Of Cancer” (NEUTEC PHARMA LIMITED, priority 2004, published 2008)
Values after ≈ are worked out from the molar mass of the structure shown. Read-outs that look alike come from different tables or passages of the source.

Key:
K562 cells = assay: Cell Titer Blue viability, single drug, K562 cells
Protocol: (§1) Viable cells reduce resazurin to resorufin (pink).
(§2) Cell growth was evaluated as described above.
K562 was established from pleural effusion of person with chronic myelogenous leukaemia in terminal blast crisis. […] The line used in these experiments was the K562B. […] K562B has been compared to K562A and K562 C, with respect to growth kinetics, cell surface protein markers, surface antigens, cytogenetics and hemoglobin production.
(§3) The cell lines were counted. […] Fresh medium containing either two-fold increasing concentrations of Mycograb® (1.5-200 μg/ml), or medium alone was then added to the wells. The plate was returned to the incubator for 48 hours following which the cell titre blue assay was carried out, or viable counts were determined using a haemocytometer.
(§4) The cell lines were counted. […] The plates were returned to the incubator for 48 hours following which cell titre blue assays were carried out.

MCF7 cells = assay: Cell Titer Blue viability, single drug, MCF7 cells; type: cell-based, human
Protocol: (§5) Viable cells reduce resazurin to resorufin (pink). Cell growth was evaluated as described above. […] The cell lines were split and cells counted. […] The next day, the cells were observed under phase contrast microscopy to ensure they had adhered to the plates and the supernatant medium removed by aspiration.

HS578T cells = assay: Cell Titer Blue viability, single drug, HS578T cells; type: cell-based, human
Protocol: as §5

HT29 cells [1] = assay: Cell Titer Blue viability, drugs without Mycograb or Mycograb alone, HT29 cells; type: cell-based, human; conditions: for IC50: 5-FU tested plus 1 mg/ml Folinic acid
Protocol: as §1, §2
Human colon adenocarcinoma grade 11 cell line HT29, was obtained from ECACC (ECACC number 91072201).
The cell lines were split and the cells counted. […] The next day, the cells were observed under phase contrast microscopy to ensure they had adhered to the plates and the supernatant medium removed by aspiration. 100 μl of fresh complete RPMI medium containing increasing two fold concentrations of study drug (5-FU 4.5-2400 μg/ml plus 1 mg/ml Folinic acid or Oxaliplatin 1-500 μg/ml) or medium alone (Media+2.5% DMSO for 5-FU control) was then added to the wells.

HT29 cells [2] = assay: Checkerboard of Mycograb versus 5-FU/Folinic acid and/or Oxaliplatin, median effect analysis (CI), HT29 cells; type: cell-based, human; conditions: for Dm: median effect analysis (Calcusyn)
Source text: as §1
CI values are shown for Fa50.
(§6) The cell lines were split and the cells counted.
as §6

[3] = tested on: Hsp 90 in multi-chaperone complexes derived from tumour cells; conditions: higher than Hsp90 from normal cells (latent uncomplexed state); cited from earlier work
KU-812 cells = assay: Cell Titer Blue viability, single drug, KU-812 cells; conditions: Mycograb on its own at 50 μg/ml
Protocol: as §1, §2, §3, §4

[4] = K562 cells, single drug, 48 hour incubation
[5] = Homo sapiens, MCF7 cells, single drug, 48 hour incubation, read-out: IC50
[6] = Homo sapiens, Hs-578T, HS578T cells, single drug, 48 hour incubation, read-out: IC50

Work on `N.N.[Cl][Pt][Cl]` [Cisplatin] yielded an IC50 (K562 cells; [4]) of 12.5 µg/mL, an IC50 (MCF7 cells; MCF7 cells, single drug, 48 hour incubation) of 6 µg/mL and an IC50 (HS578T cells; HS578T cells, single drug, 48 hour incubation) of 12.5 µg/mL.

Work on `CC(=O)O[C@@]12CO[C@@H]1C[C@H](O)[C@@]1(C)C(=O)[C@H](O)C3=C(C)[C@@H](OC(=O)[C@H](O)[C@@H](NC(=O)OC(C)(C)C)c4ccccc4)C[C@@](O)([C@@H](OC(=O)c4ccccc4)[C@H]21)C3(C)C` [Docetaxel] yielded an IC50 (K562 cells; Homo sapiens, K562, 48 h) of 70 µg/mL (≈ 86.6 µM), an IC50 (MCF7 cells; [5]) of 225 µg/mL (≈ 279 µM) and an IC50 (HS578T cells; [6]) of 50 µg/mL (≈ 61.9 µM).

In the case of `COc1cccc2c1C(=O)c1c(O)c3c(c(O)c1C2=O)C[C@@](O)(C(=O)CO)C[C@@H]3O[C@H]1C[C@H](N)[C@H](O)[C@H](C)O1` [Doxorubicin], the IC50 (K562 cells; Homo sapiens, K562, 48 h) is reported as 1 µg/mL (≈ 1.84 µM), the IC50 (MCF7 cells; [5]) is reported as 1.75 µg/mL (≈ 3.22 µM) and the IC50 (HS578T cells; [6]) is reported as 1 µg/mL (≈ 1.84 µM).

In the case of `O=C1[O][Pt]2([NH][C@@H]3CCCC[C@H]3[NH]2)[O]C1=O` [Oxaliplatin], the IC50 (HT29 cells [1]; 48 hours) is reported as 16 µg/mL and the Dm (HT29 cells [2]) is reported as 27.77.

With `COc1cccc2c1C(=O)c1c(O)c3c(c(O)c1C2=O)C[C@@](O)(C(C)=O)C[C@@H]3O[C@H]1C[C@H](N)[C@H](O)[C@H](C)O1` [Daunorubicin] the IC50 (K562 cells; Homo sapiens, K562, 48 h) was 0.75 µg/mL (≈ 1.42 µM), the IC50 (MCF7 cells; Homo sapiens, MCF7, 48 h) was 1 µg/mL (≈ 1.9 µM) and the IC50 (HS578T cells; Homo sapiens, Hs-578T, 48 h) was 1 µg/mL (≈ 1.9 µM).

`CC(=O)O[C@H]1C(=O)[C@@]2(C)[C@H]([C@H](OC(=O)c3ccccc3)[C@]3(O)C[C@H](OC(=O)[C@H](O)[C@@H](NC(=O)c4ccccc4)c4ccccc4)C(C)=C1C3(C)C)[C@]1(OC(C)=O)CO[C@@H]1C[C@@H]2O` [Paclitaxel] gave an IC50 (K562 cells; Homo sapiens, K562, 48 h) of 32 µg/mL (≈ 37.5 µM) and an IC50 (MCF7 cells; [5]) of 225 µg/mL (≈ 263 µM).

For `NC(=O)NO` [Hydroxyurea], the IC50 (K562 cells; [4]) was “never reached”.

With `O=c1[nH]cc(F)c(=O)[nH]1` [5-FU, 5-Fluorouracil] the IC50 (HT29 cells [1]; Homo sapiens, HT-29, 48 hours, read-out: IC50) was 150 µg/mL and the IC50 (HT29 cells [2]; Homo sapiens, HT-29, median effect analysis (Calcusyn), read-out: Dm) was 297 µg/mL.

For `C=CCNC1=C2C[C@@H](C)C[C@H](OC)[C@H](O)[C@@H](C)/C=C(\C)[C@H](OC(N)=O)[C@@H](OC)/C=C\C=C(/C)C(=O)NC(=CC1=O)C2=O` [17AAG, 17-allylamino, 17-desmethoxygeldanamycin], the “binding affinity for 17AAG, Hsp 90 in tumour-cell multi-chaperone complexes versus Hsp90 from normal cells” value [3] is given as 100 fold.

B1: Mycograb: anti-Hsp90 antibody disclosed in WO 01/76627, sequence of SEQ ID NO: 2, specific for epitope of peptide SEQ ID NO: 1 (protein)
chain: HMAEVQLVESGAEVKKPGESLRISCKGSGCIISSYWISWVRQMPGKGLEWMGKIDPGDSYINYSPSFQGHVTISADKSINTAYLQWNSLKASDTAMYYCARGGRDFGDSFDYWGQGTLVTVSSGGGGSGGGGSGGGGSDVVMTQSPSFLSAFVGDRITITCRASSGISRYLAWYQQAPGKAPKLLIYAASTLQTGVPSRFSGSGSGTEFTLTINSLQPEDFATYYCQHLNSYPLTFGGGTKVDIKRAA
In the case of B1, the “reduction in cell viability” value (HT29 cells [1]; Mycograb on its own at 125 μg/ml) is reported as 50%, the “reduction in cell viability” value (K562 cells; K562 cells, Mycograb on its own at 12.5 μg/ml) is reported as 40% and the “reduction in cell viability” value (KU-812 cells) is reported as 40%. For the same molecule, the Dm (HT29 cells [2]) was 96.47 and the “sensitivity of cell line to Mycograb alone” value (HS578T cells; HS578T cells, increasing concentrations up to 400 mg/l) was “insensitive”.
